Test system: Mycobacterium tuberculosis H37Rv growth inhibition, no glycerol
Assay: Mycobacterium tuberculosis H37Rv growth inhibition, no glycerol, confirmatory dose response (AID 449764);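 note: growth read after 7 days of incubation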
Settings: not given

SMILES | IC50 [µM]
O=C(CN1CCC(n2nnc3cc(C(F)(F)F)ccc32)CC1)NCc1cccs1 | 37.2
O=C(/C=C/c1ncc(C(F)(F)F)cc1Cl)OCc1ccccc1 | 90.5
CN1C2CCC1/C(=C/c1ccccn1)C(=O)/C2=C\c1ccccn1 | 23.4
Cc1nn(-c2ccccc2)nc1C(=O)c1c(C)[nH]n(-c2ccccc2)c1=O | 17.5
O=C(CCl)Nc1sccc1C(=O)c1ccccc1 | 0.45
CCCOP(=O)(OCCC)c1c([N+](=O)[O-])cc(C(F)(F)F)cc1[N+](=O)[O-] | 5.5
O=C(/C=C\c1cccs1)N1CCN(Cc2ccc3c(c2)OCO3)CC1 | 0.6
CC(C)(C)c1ccc(C(=O)NNc2cc(N3CCCCC3)nc(N3CCCCC3)n2)cc1 | 62.7
Cn1nc(-c2ccccn2)nc2c(=O)n(C)c(=O)nc1-2 | 12.5
CCOC(=O)c1c(NC(=O)C(NCCN(C)C)c2ccccc2)sc2c1CCCC2 (centres undefined) | 9.32
Nc1cc(Cl)c2nonc2c1[N+](=O)[O-] | 9.11
N#Cc1nccnc1S(=O)(=O)c1cccs1 | 59.3
CCOC(=O)CSc1nsc(SCC(=O)OCC)c1C#N | 11.9
CCc1ccc2oc(-c3ccc(OC)cc3)cc(=Nc3c(C)n(C)n(-c4ccccc4)c3=O)c2c1 | 18.8
CCCCCCCCCCC[N+](C)(C)CC/C=C1/c2ccccc2Sc2ccc(Cl)cc21 | 8.03
CC1CCC(NC(=O)c2cc3c(s2)CCCC3)CC1 (centres undefined) | 67.7
Cc1cccc(NC(=O)CCSc2nnc(Cc3ccccc3)o2)c1 | 38.1
CC(C)(C)C(=O)/C(=C\c1cccc([N+](=O)[O-])c1)n1cncn1 | 3
O=C(Nc1cc(N2CCOCC2)ncn1)NC1(C(F)(F)F)Oc2ccc(Cl)cc2O1 (centres undefined) | 23.6
Cc1cc(=O)n2[nH]c(Nc3cccc(Cl)c3)nc2n1 | 29.1
CN(C)CCCNC(=O)c1ccc(-c2nc(-c3ccc(Cl)cc3)cs2)cc1 | 26.4
CSc1nsc(SCC(=O)N2CCCCC2)n1 | 8.65

SMILES | IC50 [µM]
CCOC(=O)CCCc1ccc(/C(C)=N/NC(N)=S)cc1 | 8.39
O=C(NC1CCCC(C(F)(F)F)C1)c1ccc([N+](=O)[O-])o1 (centres undefined) | 17.9
O=C(OCC(=O)c1c[nH]c2ccccc12)c1cc(Br)ccc1O | 11.2
COC(=O)N/N=C/c1c[n+]([O-])c2ccccc2[n+]1[O-] | 18.7
CCCc1cc(C(N)=S)ccn1 | 17.1
CS(=O)(=O)c1nc(-c2ccccc2)cc(C(F)(F)F)n1 | 18
C/C(=N\NC(=S)Nc1cccc(C)c1)c1cccc(N)c1 | 21.6
O=C(N/N=C/c1cccc2cccnc12)[C@H]1C[C@@H]1c1ccccc1 | 38.2
COCCNC(=S)N/N=C(\C)c1ccc(OC)cc1 | 43.6
CCCCN(CCCC)CCC(O)c1cc2c(Cl)cc(Cl)cc2c2cc(C(F)(F)F)ccc12 (centres undefined) | 17.6
CC1=NN(C(N)=S)C(=O)C1N=Nc1ccc(C)c(Br)c1 (centres undefined) | 37.2
O=c1cc(/C=C/c2ccccc2)oc2ccccc12 | 97.6
CSC1=NC(C)(C)C=C(/C=C/c2ccc(Cl)cc2)N1 | 38.3
COc1ccccc1/C(C)=N/NC(=S)NCc1ccccc1 | 23.6
O=C(O)/C=C/C(=O)Nc1ccc(-c2ccccc2)cc1 | 94.1
CSCCOC(=O)COc1ccc(/C=N/NC(=O)c2c(Cl)cnn2C)cc1 | 19.6
Cc1ccc(NC(=O)COC(=O)C(NS(=O)(=O)c2ccc(Cl)cc2)C(C)O)cc1C (centres undefined) | 16.1
COC(=O)c1ccc(-c2ncc(-c3cccc4ccccc34)o2)cc1 | 80.3
O=C(Nc1ccc(N2CCN(C(=O)c3ccco3)CC2)cc1)C(c1ccccc1)c1ccccc1 | 24.1
CCOC(=O)c1nn(-c2ccc(C)c(C)c2)cc1O | 99.8
Cc1c(C(=O)Oc2cccc3ccccc23)cnn1-c1ccccc1 | 22.8
Cc1ccc(-n2nc(C)c3c(C)c(CCC(=O)Nc4ccc(CN5CCCC5)cc4)c(C)nc32)cc1 | 15.7

SMILES | IC50 [µM]
COc1cc(-c2ccc3oc(-c4ccsc4)cc(=O)c3c2)cc(OC)c1OC | 38.1
CC(=O)O[C@H]1C[C@@]2(C)[C@@H](C[C@@H](O)[C@H]3[C@@]4(C)CC[C@@H](O)[C@@H](C)[C@@H]4CC[C@@]32C)/C1=C(\CCC=C(C)C)C(=O)O | 2.94
Nc1ccc(C(=O)OCCCc2nc3cc4ccccc4cc3[nH]2)cc1 | 37.2
CCc1ccc(Nc2n[n+](C)c(-c3ccncc3)s2)cc1 | 42.1
CCOC(=O)CSc1ncc(OC)c(Sc2ccc(OC)cc2)n1 | 18.1
Cc1ccc(Cn2c(C(CO)Nc3nc(-c4ccc(F)cc4)cs3)nc3ccccc32)cc1 (centres undefined) | 66.4
O=[N+]([O-])c1cnc(Nc2ccc(Cl)cn2)c([N+](=O)[O-])c1 | 90.3
Cc1ccc(NC(=O)Cn2ccsc2=N)c([N+](=O)[O-])c1 | 18.5
COc1ccccc1N(O)C1CC(=O)N(c2ccc(Br)cc2)C1=O (centres undefined) | 22.9
Cc1ccc2nc(N/N=C/c3ccccc3C#N)nc(-c3ccccc3)c2c1 | 91.1
NC(=S)N/N=C/c1ccccc1OCCSc1ccc(Cl)cc1 | 37.8
CSCCCNC(=S)N1CCN(c2ccc(C(C)=O)cc2)CC1 | 37.2
Cc1ccc(C(=O)N/C(=C/c2ccco2)C(=O)OCN2C(=O)c3ccccc3C2=O)cc1 | 16.3
COc1ccc(NC(C)C(=O)Nc2ccc(C(C)(C)C)cc2)cc1Cl (centres undefined) | 94.1
CCOC(=O)CSc1nc(C)c(C(=O)OCC)s1 | 9.22
Cc1nn(-c2nc3ccccc3[nH]2)c(N)c1-c1ccc(Cl)cc1 | 3.72
CC(=O)/C=C(\C)Nc1ccccc1O | 4.45
Cc1ccc2c(c1)nnn2C1CCN(CC(=O)N2CCN(c3ccc(F)cc3)CC2)CC1 | 36.8
Cc1ccc(S(=O)(=O)n2ccc3c(OCCOCCNCc4ccc(F)cc4)cccc32)cc1 | 23
CC(/C=C/c1ccccc1)=N\NC(N)=S | 4.99
Cc1c(Cl)ccc2sc(N3CCN(C(=O)C4=COCCO4)CC3)nc12 | 22.5
Cc1ccc(C(C)C)c(OCC(=O)OCc2c(C)noc2C)c1 | 4.65

SMILES | IC50 [µM]
O=C(CSc1ccccn1)Nc1nonc1[N+](=O)[O-] | 5.73
COc1ccc(-c2cc3c(=O)n(CC(=O)NCCCN4CCC(Cc5ccccc5)CC4)ncn3n2)cc1 | 28.1
O=C(CCl)Nc1cn(-c2ccccc2)nc1-c1ccccc1 | 0.5
CCCCSCCCNC(=O)c1cn(CC)c2ccc(S(=O)(=O)N3CCOCC3)cc2c1=O | 44.3
CCOC(=O)Cn1nc(-c2ccccc2)nc1-c1ccccc1 | 13.1
CCCC(/C=C/c1ccc(OC(C)=O)cc1)=C1/c2ccccc2C(=O)N1c1ccccc1 | 13.2
O=C(N/N=C/c1ccc([N+](=O)[O-])o1)c1sc2ccccc2c1Cl | 5.69
CCOc1cccc(C=Nc2cc(C)cc(C)c2O)c1O | 31.2
Cc1ccc(-n2cc(CNCCn3nc(C)cc3C)c(-c3ccc(F)cc3)n2)cc1 | 8.2
N[C@@H](CCl)C(=O)O | 35.4
CCN1C(N(C)CCc2c[nH]c3ccccc23)=N[C@@H](c2cccc(C(F)(F)F)c2)C(C(=O)OC)=C1C | 22
O=C(OCc1ccccc1F)c1cnc(Cl)c(Cl)c1 | 22
O=C1C(Cl)=C(N2CCOCC2)C(=O)N1c1cccc(Cl)c1 | 6.48
COc1ccc(N2C(=O)C(Cl)=C(Nc3ccccc3O)C2=O)cc1 | 18.4
COc1cccc2sc3ccc(C#CC4(N)CCCCC4)cc3c(=O)c12 | 73.8
CC[N+](C)(CC)CCCCOc1ccc2c(c1)C(=O)c1cc(OCCCC[N+](C)(CC)CC)ccc1-2 | 1.68
CC(=O)c1sc(NC(=O)c2cc(=O)c3ccccc3o2)nc1C | 18.4
O=C1N=C(N2CCC(Cc3ccccc3)CC2)S/C1=C/c1cn[nH]c1-c1ccccc1 | 78.9
Cc1cc(Br)ccc1NC(=O)c1cnc(N2CCN(c3ccccn3)CC2)c2ccccc12 | 2.34
CCCc1ccc2oc(C(=O)N(C)Cc3nccs3)c(C)c2c1 | 45
N#C/C(=C\c1ccc(-c2ccc(Br)cc2)o1)C(=O)NCCc1c[nH]c2ccccc12 | 97.5
O=S(Cc1ccc(Br)cc1)Cc1nnc(SCc2ccc(Cl)cc2)n1-c1ccccc1 (centres undefined) | 83.2

Same assay, conditions: measured here: IC90 growth inhibition

SMILES | IC90 [µM]
O=C(CN1CCC(n2nnc3cc(C(F)(F)F)ccc32)CC1)NCc1cccs1 | 47.9
